Measurements taken from US20240083900A1, “PYRAZOLO[1,5-A]PYRAZINE DERIVATIVES AS BTK INHIBITORS” (BIOGEN MA INC., priority 2020, published 2024).
Like-named read-outs stand apart in the source and are kept apart here.

What was measured:
BTK = BTK (Homo sapiens (Human), UniProt Q06187); assay: In Vitro BTK Kinase Assay: Btk-PolyGAT-LS Assay; type: biochemical; conditions: BTK enzyme 0.25 nM, ATP 10 μM, polyGAT 100 nM, 30 minutes incubation, TRF readout
Outline: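 Human BTK activity was measured with final 10 μM ATP and 100 nM polyGAT substrate in pH 7.5 Tris buffer with 10 mM MgCl2, DTT, Triton X-100 and casein.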

[1] = system: CD69 expression on CD19+ B cells in human whole blood stimulated with anti-human IgD; assay: In Vitro whole blood CD69 Assay; type: cell-based
[2] = Homo sapiens, B-cell, human heparinized whole blood, anti-human IgD stimulation overnight, percentage of CD19+ B cells expressing CD69, flow cytometry, read-out: IC50
[3] = human heparinized whole blood, anti-human IgD stimulation overnight, percentage of CD19+ B cells expressing CD69, flow cytometry, read-out: IC50
[4] = Homo sapiens, B-cell, human heparinized whole blood, anti-human IgD stimulation overnight, percentage of CD19+ B cells expressing CD69, flow cytometry

Sequence of BTK (Q06187 whole entry): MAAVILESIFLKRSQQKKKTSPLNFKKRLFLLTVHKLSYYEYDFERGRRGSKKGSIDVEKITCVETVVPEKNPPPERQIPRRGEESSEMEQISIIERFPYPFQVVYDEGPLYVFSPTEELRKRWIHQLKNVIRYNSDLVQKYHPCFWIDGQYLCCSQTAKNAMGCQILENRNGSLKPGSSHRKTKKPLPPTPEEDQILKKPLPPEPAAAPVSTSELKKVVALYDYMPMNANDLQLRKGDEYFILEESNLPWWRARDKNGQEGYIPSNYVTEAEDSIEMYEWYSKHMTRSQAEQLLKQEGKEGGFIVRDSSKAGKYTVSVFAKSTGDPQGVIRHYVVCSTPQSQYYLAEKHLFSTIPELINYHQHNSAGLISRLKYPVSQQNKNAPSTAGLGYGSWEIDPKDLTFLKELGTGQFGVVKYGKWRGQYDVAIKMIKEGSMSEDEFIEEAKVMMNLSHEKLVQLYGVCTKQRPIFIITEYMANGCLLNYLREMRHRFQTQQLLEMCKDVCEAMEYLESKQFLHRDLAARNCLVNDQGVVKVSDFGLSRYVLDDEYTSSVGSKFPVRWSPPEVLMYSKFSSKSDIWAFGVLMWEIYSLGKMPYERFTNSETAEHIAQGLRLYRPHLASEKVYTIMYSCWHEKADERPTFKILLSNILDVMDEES

SMILES	IC50 (BTK; read-out: IC50) [nM]	IC50 [1, 2] [nM]	other results
C=CC(=O)N(C)[C@@H]1COC[C@H](Oc2nc(-c3cnn(C)c3)cn3nccc23)C1 (racemic) [Example 96, N-methyl-N-((cis)-5-((6-(1-methyl-1H-pyrazol-4-yl)pyrazolo[1,5-a]pyrazin-4-yl)oxy)tetrahydro-2H-pyran-3-yl)acrylamide]	< 1	< 1000	–
CC#CC(=O)N(C)[C@@H]1C[C@@H]2C[C@H]1[C@@H](Oc1nc(-c3cnn(C)c3)cn3nccc13)C2 (racemic) [Example 123, N-methyl-N-((1S,2S,4R,6R)-6-((6-(1-methyl-1H-pyrazol-4-yl)pyrazolo[1,5-a]pyrazin-4-yl)oxy)bicyclo[2.2.1]heptan-2-yl)but-2-ynamide and N-methyl-N-((1R,2R,4S,6S)-6-((6-(1-methyl-1H-pyrazol-4-y)pyrazolo[1,5-a]pyrazin-4-yl)oxy)bicyclo[2.2.1]heptan-2-y)but-2-ynamide]	1 to 10	–	IC50 [1, 3]: 1000 to 10000 nM
CN[C@H]1C[C@@](C)(Oc2nc(-c3cnn(C)c3)cn3nccc23)C1(C)C (racemic) [Example 139, racemic (1S,3R)—N,2,2,3-tetramethyl-3-((6-(1-methyl-1H-pyrazol-4-yl)pyrazolo[1,5-a]pyrazin-4-yl)oxy)cyclobutan-1-amine]	< 1	–	IC50 [1, 3]: < 1000 nM
CN(C(=O)/C=C/C#N)[C@H]1CC[C@@H](Oc2nc(-c3cnn(C)c3)cn3nccc23)C1 (racemic) [Example 150, rac-(E)-3-cyano-N-methyl-N-((1R,3S)-3-((6-(1-methyl-1H-pyrazol-4-yl)pyrazolo[1,5-a]pyrazin-4-yl)oxy)cyclopentyl)acrylamide]	< 1	< 1000	–
C=CC(=O)N(C)[C@H]1CC[C@@H]1COc1nc(-c2cnn(C)c2)cn2nccc12 (relative stereo) [Example 129, trans-N-methyl-N-(2-(((6-(1-methyl-1H-pyrazol-4-yl)pyrazolo[1,5-a]pyrazin-4-yl)oxy)methyl)cyclobutyl)acrylamide]	10 to 1000	1000 to 10000	–
C#CC(=O)NCC1CCCCN1c1nc(-c2cnn(C)c2)cn2nccc12 (single isomer, unassigned) [Example 26 E1, N-[[1-[6-(1-methylpyrazol-4-yl)pyrazolo[1,5-a]pyrazin-4-yl]-2-piperidyl]methyl]prop-2-ynamide]	10 to 1000	–	IC50 ([1]; human heparinized whole blood, anti-human IgD stimulation overnight, percentage of CD19+ B cells expressing CD69, flow cytometry, listed as 26 E1, read-out: IC50): > 10000 nM
C#CC(=O)NCC1CCCCN1c1nc(-c2cnn(C)c2)cn2nccc12 (single isomer, unassigned) [Example 26 E2, N-[[1-[6-(1-methylpyrazol-4-yl)pyrazolo[1,5-a]pyrazin-4-yl]-2-piperidyl]methyl]prop-2-ynamide]	< 1	–	IC50 ([1]; human heparinized whole blood, anti-human IgD stimulation overnight, percentage of CD19+ B cells expressing CD69, flow cytometry, listed as 26 E2, read-out: IC50): < 1000 nM
C=CC(=O)N1CCC[C@@H](Oc2nc(-c3cnn(C)c3)cc3nccn23)CC1 (single isomer, unassigned) [Example 34, (S) or (R)-1-(4-((7-(1-methyl-1H-pyrazol-4-yl)imidazo[1,2-c]pyrimidin-5-yl)oxy)azepan-1-yl)prop-2-en-1-one]	1 to 10	< 1000	–
C=CC(=O)N1CCC[C@H](Oc2nc(-c3ccc(=O)n(C)c3)cn3nccc23)CC1 (single isomer, unassigned) [Example 71 E1]	1 to 10	< 1000	–
C=CC(=O)N1CCC[C@@H](Oc2nc(-c3ccc(=O)n(C)c3)cn3nccc23)CC1 (single isomer, unassigned) [Example 71 E2]	10 to 1000	1000 to 10000	–
C=CC(=O)N1CCCC(Oc2nc(-c3ccnc(OC)c3)cn3nccc23)CC1 (single isomer, unassigned) [Example 72 E1, 1-(4-((6-(2-methoxypyridin-4-yl)pyrazolo[1,5-a]pyrazin-4-yl)oxy)azepan-1-yl)prop-2-en-1-one]	< 1	1000 to 10000	–
C=CC(=O)N1C[C@H]2C[C@@H](C1)[C@@H]2COc1cc(-c2cnn(C)c2)cn2ncc(F)c12 (single isomer, unassigned) [Example 85, 1-((1R,5S,6r) or (1R,5S,6s)-6-(((3-fluoro-6-(1-methyl-1H-pyrazol-4-yl)pyrazolo[1,5-a]pyridin-4-yl)oxy)methyl)-3-azabicyclo[3.1.1]heptan-3-yl)prop-2-en-1-one]	< 1	–	IC50 [1, 3]: < 1000 nM
C=CC(=O)N(C)[C@@H]1C[C@@](C)(Oc2nc(-c3cnn(C)c3)cn3nccc23)[C@@H]1C (single isomer, unassigned) [Example 107]	1 to 10	< 1000	–
C=CC(=O)N(C)[C@@H]1C[C@@](C)(Oc2nc(-c3cnn(C)c3)cn3nccc23)[C@H]1C (single isomer, unassigned) [Example 108]	< 1	–	IC50 [1, 4]: < 1000 nM
C=CC(=O)N(C)[C@H]1C[C@](C)(Oc2nc(-c3cnn(C)c3)cn3nccc23)[C@@H]1C (single isomer, unassigned) [Example 109]	1 to 10	–	IC50 [1, 4]: < 1000 nM
C=CC(=O)N(C)[C@H]1C[C@@](C)(Oc2nc(-c3cnn(C)c3)cn3nccc23)[C@H]1C (single isomer, unassigned) [Example 110]	< 1	–	IC50 [1, 4]: < 1000 nM

SMILES	IC50 (BTK; read-out: IC50) [nM]	IC50 [1, 2] [nM]	other results
C=CC(=O)N1CCC[C@H]2[C@@H]1C[C@@]2(C)Oc1nc(-c2cnn(C)c2)cn2nccc12 (single isomer, unassigned) [Example 111]	< 1	< 1000	–
CC#CC(=O)N(C)[C@H]1CC[C@@H]2C[C@]2(Oc2nc(-c3cnn(C)c3)cn3nccc23)C1 (single isomer, unassigned) [Example 113]	1 to 10	1000 to 10000	–
CC#CC(=O)N(C)[C@@H]1CC[C@H]2C[C@@]2(Oc2nc(-c3cnn(C)c3)cn3nccc23)C1 (single isomer, unassigned) [Example 115]	1 to 10	1000 to 10000	–
CC#CC(=O)N(C)[C@H]1CC[C@H]2C[C@@]2(Oc2nc(-c3cnn(C)c3)cn3nccc23)C1 (single isomer, unassigned) [Example 116]	< 1	< 1000	–
C=CC(=O)N1CCO[C@](C)(COc2nc(-c3cnn(C)c3)cn3nccc23)C1 (single isomer, unassigned) [Example 117, (S) or (R)-1-(2-methyl-2-(((6-(1-methyl-1H-pyrazol-4-yl)pyrazolo[1,5-a]pyrazin-4-yl)oxy)methyl)morpholino)prop-2-en-1-one]	1 to 10	< 1000	–
C=CC(=O)N1CCO[C@@](C)(COc2nc(-c3cnn(C)c3)cn3nccc23)C1 (single isomer, unassigned) [Example 118, (R) or (S)-1-(2-methyl-2-(((6-(1-methyl-1H-pyrazol-4-yl)pyrazolo[1,5-a]pyrazin-4-yl)oxy)methyl)morpholino)prop-2-en-1-one]	< 1	< 1000	–
C=CC(=O)N1CC(C)(C)OC(C)(COc2nc(-c3cnn(C)c3)cn3nccc23)C1 (single isomer, unassigned) [Example 120, 1-(2,2,6-trimethyl-6-(((6-(1-methyl-1H-pyrazol-4-yl)pyrazolo[1,5-a]pyrazin-4-yl)oxy)methyl)morpholino)prop-2-en-1-one]	< 1	< 1000	–
CC#CC(=O)N1CC(C)(C)OC(C)(COc2nc(-c3cnn(C)c3)cn3nccc23)C1 (single isomer, unassigned) [Example 121, 1-(2,2,6-trimethyl-6-(((6-(1-methyl-1H-pyrazol-4-yl)pyrazolo[1,5-a]pyrazin-4-yl)oxy)methyl)morpholino)but-2-yn-1-one]	1 to 10	< 1000	–
C=CC(=O)N(C)[C@H]1C[C@@](C)(Oc2nc(-c3cnn(C)c3)cn3nccc23)C1(C)C (single isomer, unassigned) [Example 140]	< 1	–	IC50 [1, 4]: < 1000 nM
C=CC(=O)N(C)[C@H]1C[C@@](C)(Oc2nc(-c3cnn(C)c3)cn3nccc23)C1(C)C (single isomer, unassigned) [Example 141]	–	–	IC50 (BTK; IC50 (nM)): 1 to 10 nM; IC50 ([1]; human heparinized whole blood, anti-human IgD stimulation overnight, percentage of CD19+ B cells expressing CD69, flow cytometry): 1000 to 10000 nM
C[C@@H]1O[C@H]1C(=O)N[C@H]1CC[C@@H](Oc2nc(-c3cnn(C)c3)cn3nccc23)C1 (single isomer, unassigned) [Example 148]	1 to 10	< 1000	–
C=CC(=O)N1CCC[C@@H](Nc2nc(-c3cnn(C)c3)cn3nccc23)CC1 (single isomer, unassigned) [Example 160]	< 1	1000 to 10000	–
C[C@H]1O[C@@H]1C(=O)N1CC[C@@H]2[C@H]1C[C@]2(C)Oc1nc(-c2cnn(C)c2)cn2nccc12 (single isomer, unassigned) [Example 193]	1 to 10	1000 to 10000	–
C=CC(=O)N1CC[C@@]2(CC[C@@H](Oc3nc(-c4cnn(C)c4)cn4nccc34)C2)C1 (single isomer, unassigned) [Example 207]	1 to 10	1000 to 10000	–
C#CC(=O)N1CCC(Oc2nc(-c3cnn(C)c3)cn3nccc23)CC1 [Example 1, 1-[4-[6-(1-methylpyrazol-4-yl)pyrazolo[1,5-a]pyrazin-4-yl]oxy-1-piperidyl]prop-2-yn-1-one]	1 to 10	> 10000	–
C=CC(=O)N(C)[C@H]1C[C@@](C)(Oc2nc(-c3cnn(C)c3)cc3nccn23)C1 [Example 236, N-methyl-N-((1s,3s)-3-methyl-3-((7-(1-methyl-1H-pyrazol-4-yl)imidazo[1,2-c]pyrimidin-5-yl)oxy)cyclobutyl)acrylamide]	–	–	IC50 ([1]; Homo sapiens, B-cell): < 1000 nM
